Test results published in patent US12576103B2 (priority 2020, dated 2026).
Entries after “also recorded” stand apart in the source; their conditions may differ.

What was measured:
ciliary motility = conditions: cited from earlier work
[1] = Nebulized anticoagulants in preclinical models for lung injury; type: in vivo
Text: Nebulized anticoagulants attenuate pulmonary coagulopathy in preclinical studies using various models for lung injury. Effects on inflammation are less consistent.

SARS-COV-2 = assay: microbe, parasite or virus in culture; type: cell-based; conditions: for SARS-CoV-2 infectivity of VERO cells: at concentrations which were not cytotoxic
[2] = Phase 1 clinical study of nebulized heparin in volunteers (Example 4)
Method: This example describes the safety and efficacy of nebulized heparin and NAC in normal subjects. A Phase 1 clinical study of nebulized heparin is conducted to investigate the safety of increasing doses of a well-defined lower respiratory tract (LRT) dose of inhaled heparin with regard to pulmonary function and coagulation. Ten volunteers inhale heparin from Sidestream jet nebulizers loaded with 100,000, 200,000, 300,000 or 400,000 International Units (ID) of heparin.

[3] = compared with controls
Text: Inhalation injury is a major cause of morbidity and mortality in patients with burns. Presence of airways injury adds to the need of fluid supplementation, increases risk of pulmonary complications. Due to many mechanisms involved in pathophysiology the treatment is complex. Among them the formation of fibrin casts inside airways constitutes a prominent element. The material residing in tracheobronchial tree causes ventilation-perfusion mismatch, complicates mechanical ventilation, provides a medium for bacterial growth. Inhaled anticoagulation regimens employing heparin in management of inhalation injury are tested. Simultaneously safety, especially in connection with possible bleeding risk, is measured.
Data are collected in patients receiving nebulized heparin and in historical controls. Data is analyzed separately with 1) all subjects included and 2) with subjects who died/were discharged on the ventilator excluded.

[4] = Nebulized heparin in patients with pulmonary infection or lung injury (Example 6); type: in vivo
Text: Nebulized heparin also affects various physiologic parameters and other outcomes, in particular during pulmonary infection and inhalation trauma.
Reduction of pulmonary coagulopathy at dosages ≥400,000 U/day heparin is observed.
A single dosage of nebulized heparin prior to cardiopulmonary bypass surgery decreases atelectasis and improves CO2 elimination directly after the operation. Nebulized heparin increases the number of ventilator-free days following administration.

[5] = test system: virus that contain PBSC sequences; conditions: in vitro; cited from earlier work
VERO cells = assay: Non-virus related cytotoxicity in VERO cells by light microscopy; type: cell-based; conditions: at the inhibiting concentrations (LMWH 125 μM, N-acetylcysteine 25 mM)
Method: For experiments in which infectivity was being tested, either VERO cells in media or SARS-COV-2 viral particles were incubated with potential inhibitors for one hour. Then viral particles were added to VERO cells and incubation continued for up to seven days. Cytotoxicity and viral-induced cytopathological effects were examined by light microscopy.
In order to test if AT-H201 had antiviral activity against SARS-COV-2 the standard VERO cells assay was performed. Test compounds were incubated either with the virus, to simulate antibody-like surface binding, or with the cells, to simulate either cell surface changes or to act intracellularly. Serial dilutions were conducted and the cytopathic effect (CPE) was observed by microscopy. Non-virus related cytotoxicity, if present was also noted.

[6] = aqueous solution at physiologic pH; cited from earlier work
[7] = nebulized, presence of pulmonary infection or lung injury

Question: For rhamnolipid, which “effect of limited exposure of tracheal explants” value (ciliary motility; associated with altered ciliary membranes) is on record?
Answer: The value was “ciliostasis”.

Question: Which systemic coagulation [1] does the source give for danaparoid here?
Answer: The systemic coagulation was “reduce”.

Question: With “2-alkyl-4-hydroxyquinolines [pyo compound]” as the compound, how does the “concentration producing ciliostasis / inhibiting ciliary motility” value (ciliary motility) read?
Answer: The value was 50 µg/mL.

Question: Which “SARS-CoV-2 infectivity of VERO cells” value (SARS-COV-2) does the source give for heparin here?
Answer: Its value is “inhibited”.

Question: And the “Peak anti-Xa activity” value ([2]; 6 h after inhalation of 400,000 ID heparin)?
Answer: The value was 0.113 ID/mL.

Question: And the APTT maximum ([2]; 6 h after inhalation of 400,000 ID heparin (p=0.05))?
Answer: Its APTT maximum is 1.03.

Question: And the “anti-Xa compared to baseline values” ([2]; after 200,000, 300,000, and 400,000 ID heparin)?
Answer: Its value is “increases”.

Question: What about the safety of inhalation ([2]; delivery of 32,000 IU to the lower respiratory tract) of the same compound?
Answer: The safety of inhalation was “can safely be inhaled”.

Question: And the “area under the curve of the anti-Xa activity” value ([2]; inhaled, 100,000-400,000 IU)?
Answer: The value was “increase with increasing doses”.

Question: And the pulmonary function ([2]; inhaled, 100,000-400,000 IU loaded in nebulizer)?
Answer: The pulmonary function was “did not affect”.

Question: What about the 28-day mortality [3] of the same compound?
Answer: The 28-day mortality was “no differences”.

Question: And the hospitalization length [3]?
Answer: Its hospitalization length is “no differences”.

Question: And the “lung injury score during the first 7 days post injury” value [3]?
Answer: The value was “no differences”.

Question: What about the ventilator-associated pneumonia rate [3] of the same compound?
Answer: Its ventilator-associated pneumonia rate is “no differences”.

Question: And the systemic coagulation [1]?
Answer: The systemic coagulation was “reduce”.

Question: And the bleeding incidences ([4]; at dosages ≥100,000 U)?
Answer: Its bleeding incidences is “without affecting”.

Question: What about the “dosages at which reduction of pulmonary coagulopathy is observed” value ([4]; nebulized) of the same compound?
Answer: The value was ≥ 400,000 U/day.

Question: And the “dosages at which systemic coagulation is affected” value ([4]; nebulized)?
Answer: Its value is ≥ 100,000 U.

Question: And the mortality ([4]; nebulized)?
Answer: Its mortality is “does not increase”.

Question: And the “number of ventilator-free days” value ([4]; nebulized)?
Answer: Its value is “increases”.

Question: And the “physiological parameters, such as arterial oxygenation or pulmonary compliance” value ([4]; nebulized)?
Answer: Its value is “does not affect”.

Question: And the systemic bleeding ([4]; nebulized)?
Answer: Its systemic bleeding is “does not cause; also recorded: does not result in differences”.

Question: And the systemic coagulation ([4]; nebulized)?
Answer: The systemic coagulation was “affects”.

Question: And the “anticoagulant effect in the lungs” value [4, 7]?
Answer: The value was “has an anticoagulant effect”.

Question: And the pulmonary inflammation [4, 7]?
Answer: The pulmonary inflammation was “inhibits”.

Question: What about the atelectasis ([4]; single nebulized dosage prior to cardiopulmonary bypass surgery) of the same compound?
Answer: The atelectasis was “decreases”.

Question: And the CO2 elimination ([4]; single nebulized dosage prior to cardiopulmonary bypass surgery, directly after the operation)?
Answer: Its CO2 elimination is “improves”.

Question: What about the “infectivity of virus that contain PBSC sequences” value [5] of the same compound?
Answer: The value was “blocks infectivity”.

Question: Which results are given for enoxaparin [LMWH]?
Answer: inhibition of SARS-COV-2 infectivity (SARS-COV-2; at 125 μM, SARS-COV-2 incubated with compound before VERO cell exposure): complete inhibition; inhibition of viral cytopathic effects / SARS-COV-2 infectivity (SARS-COV-2; at nanomolar concentrations, incubated with the virus or with the cells): completely inhibiting; also recorded: nanomolar efficacy; inhibition of infectivity (SARS-COV-2; either incubated with the virus or incubated with the cells): effective; Cytotoxicity (VERO cells): not seen

Question: Which “rate of NO release” value [6] does the source give for NCCN(CCN)/[N+]([O-])=N/O [diethylenetriamine/NO] here?
Answer: Its value is “approximately 20 hours”.

Question: Which “rate of NO release” value [6] does the source give for CCN(CC)/[N+]([O-])=N/O.CCNCC [diethylamine/NO] here?
Answer: Its value is < 3 min.

Question: Which inhibition at 25000 µM (SARS-COV-2; Severe acute respiratory syndrome coronavirus 2, Vero, at 25 mM, incubation with cells, read-out: Inhibition of Virus Infection) does the source give for CC(=O)N[C@@H](CS)C(=O)O [NAC, N-acetylcysteine] here?
Answer: Its inhibition at 25000 µM is 100%.

Question: And the inhibiting viral entry (SARS-COV-2; at 25 mM)?
Answer: Its inhibiting viral entry is “effective”.

Question: And the inhibition of infectivity (SARS-COV-2; at 25 mM, incubated with cells)?
Answer: Its inhibition of infectivity is “completely inhibit”.

Question: And the “SARS-CoV-2 infectivity of VERO cells” value (SARS-COV-2)?
Answer: Its value is “inhibited”.

Question: And the inhibition of infectivity (SARS-COV-2; incubated with SARS-COV-2 (virus))?
Answer: Its inhibition of infectivity is “did not inhibit”.

Question: What about the Cytotoxicity (VERO cells) of the same compound?
Answer: The Cytotoxicity was “not seen”.

Question: Which inhibition at 16 µM (SARS-COV-2; Severe acute respiratory syndrome coronavirus 2, Vero, at 16 μM, incubation with cells, read-out: Inhibition of Virus Infection) does the source give for CCN(CCO)CCCC(C)Nc1ccnc2cc(Cl)ccc12 (centres unmarked) [Hydroxychloroquine, hydroxychloroquine] here?
Answer: The inhibition at 16 µM was 100%.
